PMC10019194, “Killing Two Birds with One Stone: Discovery of Dual Inhibitors of Oxygen and Fumarate Respiration in Zoonotic Parasite, Echinococcus multilocularis” (Antimicrobial Agents and Chemotherapy, 2023)
“Also recorded” adds a separate entry of the source. Where two headings read alike, the source gives them in different places.

Experiments:
[1] = target: complex II (succinate:quinone reductase, SQR) (Echinococcus multilocularis, UniProt A0A1Z4EAW8+A0A1Z4EAX0+A0A1Z4EAX1); test: Succinate:quinone reductase (SQR) activity (complex II) in protoscoleces mitochondrial fraction; type: biochemical
complex II (succinate:quinone reductase, SQR), sequence (A0A1Z4EAV8 entry or part of it): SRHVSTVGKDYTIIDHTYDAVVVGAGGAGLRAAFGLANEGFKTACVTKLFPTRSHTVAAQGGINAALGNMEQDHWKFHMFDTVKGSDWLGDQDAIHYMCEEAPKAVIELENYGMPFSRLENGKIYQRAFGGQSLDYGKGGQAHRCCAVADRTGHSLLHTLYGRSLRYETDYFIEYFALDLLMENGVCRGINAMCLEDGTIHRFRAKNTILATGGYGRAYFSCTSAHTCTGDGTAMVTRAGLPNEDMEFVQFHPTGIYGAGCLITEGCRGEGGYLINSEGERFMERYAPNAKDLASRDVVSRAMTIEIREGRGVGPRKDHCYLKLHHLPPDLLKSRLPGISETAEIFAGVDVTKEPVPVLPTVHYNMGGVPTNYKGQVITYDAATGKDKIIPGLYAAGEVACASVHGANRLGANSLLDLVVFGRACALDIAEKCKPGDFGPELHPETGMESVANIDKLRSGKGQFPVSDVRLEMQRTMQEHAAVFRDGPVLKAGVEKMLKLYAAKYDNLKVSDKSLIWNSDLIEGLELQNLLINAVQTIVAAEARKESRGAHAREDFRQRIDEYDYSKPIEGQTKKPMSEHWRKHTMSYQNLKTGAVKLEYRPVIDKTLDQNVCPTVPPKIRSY
complex II (succinate:quinone reductase, SQR), sequence (A0A1Z4EAX1 entry or part of it): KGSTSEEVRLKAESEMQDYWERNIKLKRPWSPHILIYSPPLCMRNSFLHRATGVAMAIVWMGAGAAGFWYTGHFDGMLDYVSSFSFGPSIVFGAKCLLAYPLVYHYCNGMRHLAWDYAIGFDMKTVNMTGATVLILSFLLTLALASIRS
complex II (succinate:quinone reductase, SQR), sequence (A0A1Z4EAX0 entry or part of it): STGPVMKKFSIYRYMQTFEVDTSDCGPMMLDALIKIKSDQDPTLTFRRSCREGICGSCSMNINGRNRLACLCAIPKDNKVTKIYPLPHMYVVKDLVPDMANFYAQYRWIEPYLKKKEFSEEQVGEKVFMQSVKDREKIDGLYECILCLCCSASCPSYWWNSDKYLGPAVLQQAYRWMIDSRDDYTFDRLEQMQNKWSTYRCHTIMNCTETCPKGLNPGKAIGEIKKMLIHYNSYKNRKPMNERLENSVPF
complex II (succinate:quinone reductase, SQR), sequence (A0A1Z4EAW8 entry or part of it): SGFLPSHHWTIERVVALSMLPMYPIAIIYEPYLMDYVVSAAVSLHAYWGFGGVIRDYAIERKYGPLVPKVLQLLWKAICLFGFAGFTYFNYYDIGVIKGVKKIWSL
Source text: (§1) Cyst tissues containing E. multilocularis (Nemuro strain) protoscoleces isolated from infected hispid cotton rats, Sigmodon hispidus, were used. The tissues were shredded through a metal mesh (0.5 mm diameter). Then, the tissues were repeatedly suspended and washed with physiological saline in a tall beaker to obtain protoscoleces by exploiting the buoyancy difference between protoscoleces and other tissue ([26]). The obtained protoscoleces were homogenized with a motor-driven homogenizer to prepare the mitochondrial fraction. The homogenate was diluted with mitochondrial preparation buffer (210 mM mannitol, 10 mM sucrose, 1 mM disodium EDTA, and 50 mM Tris-HCl [pH 7.5]) supplemented with 10 mM sodium malonate to 5 times the volume of the original protoscolex homogenate, and then centrifuged at 800 × g for 10 min (4°C) to remove cell debris and nuclei. The supernatant was then centrifuged at 8,000 × g for 10 min (4°C) to obtain the mitochondrial pellet. Next, the pellet was resuspended in mitochondrial preparation buffer (without malonate) and centrifuged at 8,000 × g for 10 min (4°C). The enriched mitochondrial fraction was finally suspended in approximately 0.5 to 1.0 mL of mitochondrial preparation buffer without malonate and frozen at −50°C. The mitochondrial fraction from A. suum was prepared essentially as described previously ([27], [28]).
(§2) NADH:quinone reductase activity (complex I), succinate:quinone reductase activity (complex II), and succinate:cytochrome c reductase activity (complexes II to III) were measured using a UV-3000 spectrophotometer (Shimadzu, Kyoto, Japan) as described previously ([4], [6]). Briefly, all enzyme assays using mitochondrial fractions were performed in 0.5- or 1.0-mL reaction mixtures at 25°C. A freeze/thaw process was performed before the assay to ensure that the mitochondrial membrane was permeable to the solutes. The final mitochondrial protein concentration was 50 μg/mL. NADH:quinone reductase activity was measured in 50 mM potassium phosphate buffer (pH 7.4) containing 2 mM potassium cyanide, KCN (Sigma, St. Louis, MO, USA), and 60 μM decylubiquinone (Sigma). The activity assay was started by the addition of 50 μM NADH (Fujifilm-Wako, Tokyo, Japan) and recorded as the rate of NADH consumption as monitored at 340 nm (ε = 6.2 mM^−1 cm^−1). The reagents used in the SQR activity assay were mixed with the reaction buffer containing 50 mM potassium phosphate (pH 7.4) and 0.1% (wt/vol) sucrose monolaurate (DOJINDO, Kumamoto, Japan). SQR activity was determined by monitoring the change in absorbance of quinone at 278 nm (ε = 15 mM^−1 cm^−1) in the presence of 60 μM decylubiquinone, 2 mM KCN, and the inhibitor. The reaction was initiated by the addition of 10 mM disodium succinate to the mixture. NADH:cytochrome c activity (complex I to III) was measured in the reaction buffer (30 mM potassium phosphate, 1 mM MgCl2, pH 7.5) containing 2 mM KCN, 50 μM cytochrome c (Nacalai Tesque, Kyoto, Japan), and the inhibitor. The assay was performed after the addition of 100 mM malonate to block complex II activity. The reaction was started by adding 50 μM NADH to the mixture, and the enzyme activity was determined by monitoring the change in absorbance of cytochrome c at 550 nm (ε = 19 mM^−1 cm^−1). IC50 values of AF and its derivatives against the specific activities of mitochondrial respiratory enzymes in protoscoleces were determined. The IC50 of each compound was determined by calculating approximation lines from three or more points on either side of the IC50 concentration.

[2] = target: complex I and III (NADH:cytochrome c reductase) (Echinococcus multilocularis, UniProt Q9TE80); test: NADH:cytochrome c reductase activity (complex I to III) in protoscoleces mitochondrial fraction; type: biochemical
complex I and III (NADH:cytochrome c reductase), sequence (Q9TE80 entry or part of it): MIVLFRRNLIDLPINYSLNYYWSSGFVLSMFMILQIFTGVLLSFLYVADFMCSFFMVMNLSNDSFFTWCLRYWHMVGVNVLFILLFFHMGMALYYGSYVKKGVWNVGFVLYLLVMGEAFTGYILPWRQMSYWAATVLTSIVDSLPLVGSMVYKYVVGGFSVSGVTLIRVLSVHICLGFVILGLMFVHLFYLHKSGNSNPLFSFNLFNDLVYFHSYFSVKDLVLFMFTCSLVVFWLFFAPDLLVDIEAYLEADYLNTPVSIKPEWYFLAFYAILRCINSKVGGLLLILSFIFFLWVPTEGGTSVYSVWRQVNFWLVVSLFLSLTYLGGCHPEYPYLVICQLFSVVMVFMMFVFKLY
complex I and III (NADH:cytochrome c reductase), sequence (Q9GP40 whole entry, further chain): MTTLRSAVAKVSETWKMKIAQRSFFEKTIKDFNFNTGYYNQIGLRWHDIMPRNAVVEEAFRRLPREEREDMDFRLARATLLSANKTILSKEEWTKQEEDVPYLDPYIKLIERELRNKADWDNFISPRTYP
complex I and III (NADH:cytochrome c reductase), sequence (Q9TE76 entry or part of it, further chain): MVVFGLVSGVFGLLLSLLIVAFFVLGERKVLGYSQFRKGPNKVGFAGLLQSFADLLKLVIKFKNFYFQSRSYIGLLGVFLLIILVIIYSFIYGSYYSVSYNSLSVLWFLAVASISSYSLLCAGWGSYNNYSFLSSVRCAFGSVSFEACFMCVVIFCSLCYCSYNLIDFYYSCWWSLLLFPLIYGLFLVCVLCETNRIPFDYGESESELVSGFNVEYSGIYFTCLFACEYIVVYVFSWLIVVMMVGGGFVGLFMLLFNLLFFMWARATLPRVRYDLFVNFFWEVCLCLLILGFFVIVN
Source text: as §1, §2

[3] = target: complex I (NADH:quinone reductase) (Echinococcus multilocularis, UniProt A0A068Y553+A0A068Y9L9+Q9TE76); test: NADH:quinone reductase activity (complex I) in protoscoleces mitochondrial fraction; type: biochemical; details: for IC50: E. multilocularis protoscoleces mitochondria, read-out: IC50 NADH:decyl rhodoquinone reductase (complex I)
Source text: as §1
as §2, with “Louis, MO, USA), and 60 μM decylubiquinone (Sigma).” left out, “SQR activity was determined by monitoring the change in absorbance of quinone at 278 nm (ε = 15 mM^−1 cm^−1) in the presence of 60 μM decylubiquinone, 2 mM KCN, and the inhibitor.” left out

[4] = test system: E. multilocularis protoscoleces; test: Ex vivo culture assay of live protoscoleces, viability by trypan blue exclusion; type: cell-based, Echinococcus multilocularis; details: 50 μM; for antiparasitic effect on protoscoleces in culture assay: both anaerobic and aerobic conditions
Description: FIG 5 Viability of E. multilocularis protoscoleces in ex vivo culture assay. The E. multilocularis protoscoleces were treated with ascofuranone (AF) and its derivatives in culture under aerobic and anaerobic conditions (O2 <0.3%). Each compound was added to the culture medium at a final concentration of 50 μM. The control group was supplemented with 0.5% (vol/vol) dimethyl sulfoxide (DMSO). Atovaquone (ATV) was used as positive control and to ensure anaerobic conditions in the culture. The viability of protoscoleces was evaluated by their ability to exclude trypan blue. The data are presented as the mean ± standard deviation (n = 3).
The obtained protoscoleces were cultured in Connaught Medical Research Laboratories 1066 medium (Gibco, Grand Island, NY, USA) containing 0.5% (wt/vol) yeast extract (Difco Laboratories, Detroit, MI, USA), 2 mM L-glutamine (Gibco), 23 mM 4-(2-hydroxyethyl)-1-piperazineethanesulfonic acid, 0.5% (wt/vol) D (+)-glucose, 0.4 mM sodium taurocholate (Wako Pure Chemical Industries, Osaka, Japan), 57 mM sodium hydrogen carbonate, and 100 U/mL penicillin-streptomycin (Gibco). The protoscoleces were observed daily for seven consecutive days, and half of the medium was replaced on day 3. For anaerobic cultures, six-well plates were sealed in plastic containers with oxygen-detecting agents and oxygen scavengers (Aneromeito, Nissui Pharmaceutical, Tokyo, Japan) to keep the oxygen concentration below 0.3% at 37°C. The protoscoleces were treated with AF and its derivatives at a final concentration of 50 μM in the culture medium, and the duration of parasite elimination was investigated. The control group was supplemented with 0.5% (vol/vol) dimethyl sulfoxide (DMSO), and all conditions were assayed in triplicate. We used ATV in a culture assay as positive control and to ensure anaerobic conditions in the culture ([4], [5]). […] The viability of protoscoleces was determined after microscopic observation of more than 170 protoscoleces per well using the trypan blue exclusion test, as described previously ([4], [6], [33]).

[5] = IC50, inhibition of E. multilocularis SQR, Table 2, substitutions on the benzene group, mean ± SEM
[6] = IC50, inhibition of E. multilocularis SQR, Table 4, different linker structures, mean ± SEM
[7] = IC50, E. multilocularis SQR inhibition, Table 5, furanone ring-substituted derivatives, mean ± SEM
[8] = IC50 against E. multilocularis complex II (SQR), figure legends, supplement
[9] = IC50 against E. multilocularis SQR, Table 3, various side chain lengths, mean ± SEM
[10] = E. multilocularis protoscoleces mitochondria; mean ± SEM; Table 1; read-out: IC50 NADH:cytochrome c reductase (complex I and III)
[11] = IC50 Succinate:quinone reductase (SQR) (complex II), E. multilocularis protoscoleces mitochondria, mean ± SEM, Table 1

CC(=O)c1c(C)c(Cl)c(O)c(C/C=C(\C)CCC=C(C)C)c1O [Compound D6]
IC50 [1, 5]: 210 ± 22 nM

Cc1c(Cl)c(O)c(CCC(C)CCCC(C)C)c(O)c1C=O (stereo not drawn) [Compound D13]
IC50 [1, 6]: 280 ± 50 nM

C#CCOC/C(C)=C/CC/C(C)=C/Cc1c(O)c(Cl)c(C)c(C=O)c1O [Compound D16]
IC50 [1, 7]: 258 ± 72 nM | IC50 [1, 8]: 250 nM

CCCCCCC/C=C/c1c(O)c(Cl)c(C)c(C=O)c1O [Compound C9]
IC50 [1, 9]: 1200 ± 120 nM

CC(C)=CCC/C(C)=C/CC/C(C)=C/Cc1c(O)c(Cl)cc(C=O)c1O [Compound D1]
IC50 [2, 10]: 274 ± 25 nM | IC50 [3]: > 50000 nM | IC50 [1, 11]: 88 ± 13 nM

CCCCCCCCCC/C=C/c1c(O)c(Cl)c(C)c(C=O)c1O [Compound C12]
IC50 [1, 9]: 1700 ± 720 nM

CCC/C=C/c1c(O)c(Cl)c(C)c(C=O)c1O [Compound C5]
IC50 [1, 9]: 3300 ± 270 nM

CCCCCCCCc1c(O)c(Cl)c(C)c(C=O)c1O [Compound D15]
IC50 [1, 6]: 890 ± 110 nM

C/C(=C\Cc1c(O)c(Cl)c(C)c(C=O)c1O)CC/C=C(\C)[C@@H]1CC(=O)C(C)(C)O1 [AF, Ascofuranone]
IC50 ([2]; read-out: IC50 NADH:cytochrome c reductase (complex I and III); E. multilocularis protoscoleces mitochondria; mean ± SEM; Table 1): 57 ± 11 nM | inhibition of NADH:ubiquinone reductase activity of complex I [3]: not inhibited | IC50 [3]: > 50000 nM | IC50 [1, 7]: 1100 ± 210 nM | IC50 [1, 5]: 1100 ± 210 nM | IC50 [1, 11]: 1100 ± 210 nM | viability of protoscoleces during treatment ([4]; aerobic culture): progressively reduced | viability / killing of protoscoleces during treatment ([4]; anaerobic culture (O2 <0.3%)): progressively reduced; also recorded: strong killing effect | antiparasitic effect on protoscoleces in culture assay [4]: strong antiparasitic effect

Cc1c(Cl)c(O)cc(O)c1C=O [Compound C0]
IC50 [1, 9]: > 20000 nM

CCCCC/C=C/c1c(O)c(Cl)c(C)c(C=O)c1O [Compound C7]
IC50 [1, 9]: 950 ± 270 nM

CC(C)=CCC/C(C)=C/Cc1c(O)c(Cl)c(C)c(C=O)c1O [Compound D12]
IC50 [1, 6]: 570 ± 30 nM

C/C(=C\Cc1c(O)c(Cl)c(C)c(C=O)c1O)CC/C=C(\C)C(C)O (stereo not drawn) [Compound D18]
IC50 ([1]; read-out: IC50, E. multilocularis SQR inhibition, Table 5, furanone ring-substituted derivatives, mean ± SEM): 3770 ± 980 nM

CCCCCCCC/C=C/c1c(O)c(Cl)c(C)c(C=O)c1O [Compound C10]
IC50 [1, 9]: 1200 ± 80 nM

CC(C)=CCC/C(C)=C/Cc1c(O)cc(C)c(C=O)c1O [Compound D8]
IC50 [1, 5]: > 10000 nM

COc1c(Cl)c(C)c(C=O)c(O)c1C/C=C(\C)CC/C=C(\C)C1CC(=O)C(C)(C)O1 (stereo not drawn) [Compound D11]
SQR inhibitory activity ([1]; 4-OH changed to methoxy): inhibitory activity was lost | IC50 [1, 5]: > 10000 nM

CC(C)=CCC/C(C)=C/Cc1c(O)c(Cl)c(C)c(C=O)c1O [Compound D7]
increase of SQR IC50 compared to D6 ([1]; 1-aldehyde (D7) vs 1-acetyl (D6)): 2 fold

C/C(=C\Cc1c(O)c(Cl)cc(C=O)c1O)CC/C=C(\C)C1CC(=O)C(C)(C)O1 (stereo not drawn) [Compound D10]
IC50 [1, 5]: 550 ± 130 nM

CC(C)=CCC/C(C)=C/CC/C(C)=C/Cc1c(O)c(Cl)c(C)c(C=O)c1O [Compound D2]
IC50 [2, 10]: 8 ± 2 nM | selectivity complex III over complex II (aerobic vs anaerobic) ([2]; IC50 complex II 0.309 μM vs complex III 0.008 μM): 38 fold | IC50 [3]: > 50000 nM | IC50 [1, 7]: 309 ± 21 nM | IC50 [1, 11]: 309 ± 21 nM | IC50 [1, 8]: 300 nM | day of complete elimination of protoscoleces ([4]; aerobic culture): ≤ 4 days | day of complete elimination of protoscoleces ([4]; anaerobic culture (O2 <0.3%)): 6 days | antiparasitic effect on protoscoleces in culture assay [4]: strong antiparasitic effect

CC(=O)c1c(C)c(Cl)c(O)c(C/C=C(\C)CC/C=C(\C)CCC=C(C)C)c1O [Compound D3]
IC50 [2, 10]: 14 ± 2 nM | IC50 [3]: > 50000 nM | IC50 [1, 11]: 135 ± 14 nM

C/C(=C\Cc1c(O)c(Cl)c(C)c(C=O)c1O)CC/C=C(\C)COC(=O)C(C)(C)C [Compound D17]
IC50 [1, 7]: 488 ± 15 nM | IC50 [1, 8]: 480 nM

CC(=O)c1cc(Cl)c(O)c(C/C=C(\C)CC/C=C(\C)CCC=C(C)C)c1O [Compound D4]
IC50 [2, 10]: 109 ± 9 nM | IC50 [3]: > 50000 nM | IC50 [1, 11]: 37 ± 8 nM | elimination of protoscoleces on day 7 ([4]; aerobic culture, day 7): 34% | elimination of protoscoleces by day 7 ([4]; anaerobic culture (O2 <0.3%), day 7): 65% | antiparasitic effect on protoscoleces in culture assay [4]: weak

C/C(=C\CC/C(C)=C/Cc1c(O)c(Cl)c(C)c(C=O)c1O)CO [Compound D19]
IC50 [1, 7]: > 10000 nM

CCCCCC(C)CCc1c(O)c(Cl)c(C)c(C=O)c1O (stereo not drawn) [Compound D14]
IC50 [1, 6]: 540 nM

C/C=C/c1c(O)c(Cl)c(C)c(C=O)c1O [Compound C3]
IC50 [1, 9]: 5400 ± 700 nM

COC(=O)c1c(C)c(Cl)c(O)c(C/C=C(\C)CCC=C(C)C)c1O [Compound D9]
IC50 [1, 5]: > 10000 nM
